Source: patent US20070184490A1, “Neuronal nicotinic receptor ligands and their use” (priority 2006, published 2007)

Tests used:
[1] = animal models; U-shaped dose-response; cited from earlier work
[2] = target: human α4 β2 NNRs (Homo sapiens, UniProt P17787+P43681); assay: binding to human α4β2 NNRs in vitro
[3] = test system: adults with ADHD; assay: pilot crossover study in adults with ADHD: CAARS, CGI-ADHD-S, HAM-A, HAM-D; format: in vivo, human
From the text: In addition to the primary outcome, the Conner's Adult ADHD Rating Scale (CAARS), secondary rating scales, neuropsychological, and safety assessments were completed. Results: A total of 11 adults with well-characterized ADHD completed this crossover study. […] On the clinical efficacy endpoints, CAARS Total Symptom Score and CAARS Hyperactive/Impulsive score, a shallow inverted V-shaped dose-response curve was observed. However, the dose-response curve for attention and memory effects as measured by computerized cognitive testing seemed dose-linear. No clinically meaningful findings in safety assessments or side effect profile were observed.
Subjects between 18 and 60 years old who met the DSM-IV-TR criteria for ADHD as assessed by clinical interview and confirmed by the Washington University in St. Louis Kiddie Schedule for Affective Disorders and Schizophrenia (WASH-U-KSADS) diagnostic criteria for ADHD (Orvaschel 1985) (Geller et al 1998) were eligible for inclusion in the study. Furthermore, a score of ≧2 on at least six of nine items in at least one of the subscales of the Conner's Adult ADHD Rating Scale (CAARS) (Conners et al 1999) at screening and Day 1 and a score of ≧4 (i.e., at least moderate severity) on the Clinical Global Impressions-ADHD Severity (CGI-ADHD-S) test (Guy 1976) at screening were required. Exclusion criteria consisted of: smoker or user of nicotine product(s) in the three months prior to enrollment; clinically significant chronic medical conditions; current diagnosis or history of schizoaffective or bipolar disorder, obsessive-compulsive disorder, schizophrenia, or other psychotic disorder; current depression requiring treatment; serious homicidal or suicidal ideation; abnormal baseline laboratory values; drug or alcohol abuse/dependence within the last three months; current use of psychotropics or stimulants; and pregnant or lactating women. The following institutional review boards at Quorum IRB in Seattle, Wash., The Human Research Committee at the Lawrence House in Boston, Mass., the Institutional Board of Research Associates at the NYU School of Medicine in New York, N.Y., the New York Campus, Va. NY Harbor Healthcare Systems Subcommittee for human subjects, research and development subcommittee, and research safety subcommittee in New York, N.Y., the University of Vermont Committee on Human Research in Burlington, Vt., the Scientific Advisory Committee of Burlington, Vt., and the University of Chicago Hospitals IRB in Chicago, Ill. approved the study protocol, and all subjects provided written, informed consent.
Following an initial two-week medication washout and screening period, subjects entered an eight-week double-blind treatment period. […] A study design schematic is provided below in Table 1.
Raters for the CAARS were trained and certified prior to the start of the study. Investigator-administered CAARS, CGI-ADHD-S, Hamilton Anxiety Scale (HAM-A) (Hamilton 1959), and Hamilton Depression Scale (HAM-D) (Hamilton 1960) were administered to subjects at baseline and at the completion of each treatment period (Days 14, 28, 42, and 56). CMRS, HAM-A, and HAM-D ratings were based on the previous seven days. After being trained, subjects completed a computerized cognitive assessment battery (Simpson et al 1989), which was amended to include the Conner's Continuous Performance Test (Conners 1995) and the Stroop Color Word Test (Jensen and Rohwer 1966), at baseline and at the completion of each treatment period. Attentional tasks (simple and choice reaction time, digit vigilance), selective attention (Conner's CPT), working memory tasks (numeric and spatial working memory, rapid visual information processing), episodic secondary memory (immediate and delayed word recall, word and picture recognition), motor control tasks (tracking), and executive function (the Stroop effect) were among the items assessed. […]

human α4 β2 NNRs, sequence (P43681 29-627 limits assumed): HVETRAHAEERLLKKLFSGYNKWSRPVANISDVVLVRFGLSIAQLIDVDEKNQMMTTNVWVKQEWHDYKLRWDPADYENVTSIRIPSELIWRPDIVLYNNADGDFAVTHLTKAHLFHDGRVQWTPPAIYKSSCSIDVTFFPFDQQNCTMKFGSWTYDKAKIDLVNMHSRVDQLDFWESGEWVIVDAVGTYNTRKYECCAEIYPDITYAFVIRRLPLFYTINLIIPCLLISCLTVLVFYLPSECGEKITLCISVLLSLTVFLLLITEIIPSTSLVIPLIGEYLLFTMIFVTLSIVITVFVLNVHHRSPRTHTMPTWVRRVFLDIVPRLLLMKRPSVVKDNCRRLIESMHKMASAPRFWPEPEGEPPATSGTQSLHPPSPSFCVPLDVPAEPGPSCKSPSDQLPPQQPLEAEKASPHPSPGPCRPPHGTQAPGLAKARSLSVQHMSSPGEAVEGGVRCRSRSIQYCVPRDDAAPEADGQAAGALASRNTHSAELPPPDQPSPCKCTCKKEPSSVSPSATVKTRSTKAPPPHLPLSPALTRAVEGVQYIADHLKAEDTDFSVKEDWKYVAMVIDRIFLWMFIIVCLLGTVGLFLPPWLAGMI
human α4 β2 NNRs, sequence (P17787 26-502): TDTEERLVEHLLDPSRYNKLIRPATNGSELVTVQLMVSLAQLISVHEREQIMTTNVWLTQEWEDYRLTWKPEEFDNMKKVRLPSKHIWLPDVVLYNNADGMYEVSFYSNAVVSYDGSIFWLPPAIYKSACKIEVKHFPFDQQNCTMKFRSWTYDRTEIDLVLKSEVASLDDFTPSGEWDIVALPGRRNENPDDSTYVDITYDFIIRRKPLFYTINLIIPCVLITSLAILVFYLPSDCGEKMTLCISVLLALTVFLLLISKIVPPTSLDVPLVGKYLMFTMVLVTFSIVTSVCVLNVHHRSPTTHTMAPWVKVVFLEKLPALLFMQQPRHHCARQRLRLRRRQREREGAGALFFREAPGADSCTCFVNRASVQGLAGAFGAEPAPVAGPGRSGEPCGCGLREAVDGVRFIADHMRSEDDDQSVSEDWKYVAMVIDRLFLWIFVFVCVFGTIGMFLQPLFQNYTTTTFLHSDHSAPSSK

Q: With `Cc1ncccc1OC[C@@H]1CCCN1` [ABT-089, 2-methyl-3-(2-(S)-pyrrolidinylmethoxy)pyridine] as the compound, how does the “plasma levels associated with efficacy” value [1] read?
A: 5 to 15 ng/mL

Q: And the “binding to human α4 β2 NNRs” value [2]?
A: very selectively binds

Q: What about the “Hyperactive/impulsive score improvement vs. placebo” value ([3]; 2 mg and 4 mg doses) of the same compound?
A: ~20%

Q: What about the “Inattentive score improvement versus placebo” value ([3]; 2 mg and 20 mg doses) of the same compound?
A: approximately 11%

Q: And the “CAARS Hyperactive/Impulsive subscale, least square mean (±SE)” value ([3]; 2 mg bid)?
A: 13.8 (0.9)

Q: What about the “CAARS Inattentive subscale, least square mean (±SE)” value (shortened to “CAARS Inattentive subscale … (±SE)”) ([3]; 2 mg bid) of the same compound?
A: 18.3 (1.2)

Q: And the CGI-ADHD-S mean score ([3]; 2 mg dose)?
A: 3.92 (0.20)

Q: What about the “effect size, CAARS total symptom score vs placebo” value (from here on “effect size … vs placebo”) ([3]; 2 mg twice daily) of the same compound?
A: 0.92

Q: And the “CAARS Hyperactive/Impulsive subscale, least square mean (±SE)” value ([3]; 4 mg bid)?
A: 14.5 (0.9)

Q: What about the “CAARS Inattentive subscale … (±SE)” value ([3]; 4 mg bid) of the same compound?
A: 18.7 (1.2)

Q: What about the CGI-ADHD-S mean score ([3]; 4 mg dose) of the same compound?
A: 4.09 (0.20)

Q: And the “effect size … vs placebo” value ([3]; 4 mg twice daily)?
A: 0.76

Q: And the “CAARS Hyperactive/Impulsive subscale, least square mean (±SE)” value ([3]; 20 mg bid)?
A: 15.4 (0.9)

Q: What about the “CAARS Inattentive subscale … (±SE)” value ([3]; 20 mg bid) of the same compound?
A: 18.1 (1.2)

Q: And the CGI-ADHD-S mean score ([3]; 20 mg dose)?
A: 4.12 (0.20)

Q: And the “effect size … vs placebo” value ([3]; 20 mg twice daily)?
A: 0.71

Q: And the “effect on HAM-A or HAM-D scores” value ([3]; in vivo)?
A: no effect
